Measurements as given in patent US20230233569A1 (Revolution Medicines, Inc., priority 2020, published 2023).
Read-outs that look alike come from different tables or passages of the source.

Legend:
[1] = test system: AsPC-1 (K-Ras G12D); test: Potency assay: pERK; type: cell-based; details: Homo sapiens
[2] = test system: AsPC-1 (K-Ras G12D); test: CellTiter-Glo cell viability assay; type: cell-based; details: Homo sapiens, ASPC1, 120 h
Description: Determination of Cell Viability in RAS Mutant Cancer Cell Lines
Protocol: CellTiter-Glo® Cell Viability Assay
Note—The following protocol describes a procedure for monitoring cell viability of K-Ras mutant cancer cell lines in response to a compound of the invention. Other RAS isoforms may be employed, though the number of cells to be seeded will vary based on cell line used.
Test compounds (132.5 nL) were directly dispensed into the assay plates containing cells. […] On day 5, assay plates and their contents were equilibrated to room temperature for approximately 30 minutes. […] Luminescence was measured using the PerkinElmer Enspire. Data were normalized by the following: (Sample signal/Avg. DMSO)*100. The data were fit using a four-parameter logistic fit.

[3] = molecular target: KRAS G12D (Homo sapiens, UniProt P01116+P62937, G12D); test: Ras-Raf disruption / FRET / MOA assay (BRAF RBD); type: biochemical; details: KRAS G12D FRET data IC50, Ras-Raf disruption, with Cyclophilin A
KRAS G12D, sequence (P01116 1-169 isoform P01116-2 G12D limits assumed): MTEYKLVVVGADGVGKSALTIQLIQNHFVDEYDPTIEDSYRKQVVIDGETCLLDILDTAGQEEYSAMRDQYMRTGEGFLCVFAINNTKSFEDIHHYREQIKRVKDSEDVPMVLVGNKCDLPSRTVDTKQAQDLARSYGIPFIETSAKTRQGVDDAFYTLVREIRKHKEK
KRAS G12D, sequence (P62937 whole entry): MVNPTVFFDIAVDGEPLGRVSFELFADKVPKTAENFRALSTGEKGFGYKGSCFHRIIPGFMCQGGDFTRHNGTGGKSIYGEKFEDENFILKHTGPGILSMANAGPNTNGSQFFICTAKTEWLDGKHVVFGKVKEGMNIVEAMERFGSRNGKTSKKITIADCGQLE
How it was run: (§1)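 Compound-induced Ras–Cyclophilin A ternary complex disrupting BRAF RBD binding, read as IC50 from reduced TR-FRET ratio relative to DMSO. Final: Ras-GMPPNP 12.5 nM, BRAF RBD 50 nM, Cyclophilin A 25 μM, top compound 30 μM (3-fold, 10 points); 3 h at 25 °C, then 1.5 h with detection antibodies.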

[4] = molecular target: KRAS G12S (Homo sapiens, UniProt P01116+P62937, G12S); test: Ras-Raf disruption / FRET / MOA assay (BRAF RBD); type: biochemical; details: KRAS G12S FRET data IC50, Ras-Raf disruption, with Cyclophilin A
KRAS G12S, sequence (P01116 1-169 isoform P01116-2 G12S limits assumed): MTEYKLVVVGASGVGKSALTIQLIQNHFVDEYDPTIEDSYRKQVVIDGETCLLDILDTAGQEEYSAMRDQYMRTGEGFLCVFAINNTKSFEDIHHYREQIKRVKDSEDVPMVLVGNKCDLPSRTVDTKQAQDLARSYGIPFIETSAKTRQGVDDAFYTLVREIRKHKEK
KRAS G12S, sequence (P62937 whole entry): as the sequence (P62937 whole entry) above
How it was run: as §1

[5] = molecular target: KRAS G12V (Homo sapiens, UniProt P01116+P62937, G12V); test: Ras-Raf disruption / FRET / MOA assay (BRAF RBD); type: biochemical; details: KRAS G12V FRET data IC50, Ras-Raf disruption, with Cyclophilin A
KRAS G12V, sequence (P01116 1-169 isoform P01116-2 G12V limits assumed): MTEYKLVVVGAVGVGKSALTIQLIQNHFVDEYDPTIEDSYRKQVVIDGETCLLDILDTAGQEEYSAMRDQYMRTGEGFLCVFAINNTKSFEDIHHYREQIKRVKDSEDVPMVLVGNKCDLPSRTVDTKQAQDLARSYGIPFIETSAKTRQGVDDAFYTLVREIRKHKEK
KRAS G12V, sequence (P62937 whole entry): as the sequence (P62937 whole entry) above
How it was run: as §1

[6] = molecular target: KRAS G13C (Homo sapiens, UniProt P01116+P62937, G13C); test: Ras-Raf disruption / FRET / MOA assay (BRAF RBD); type: biochemical; details: KRAS G13C FRET data IC50, Ras-Raf disruption, with Cyclophilin A
KRAS G13C, sequence (P01116 1-169 isoform P01116-2 G13C limits assumed): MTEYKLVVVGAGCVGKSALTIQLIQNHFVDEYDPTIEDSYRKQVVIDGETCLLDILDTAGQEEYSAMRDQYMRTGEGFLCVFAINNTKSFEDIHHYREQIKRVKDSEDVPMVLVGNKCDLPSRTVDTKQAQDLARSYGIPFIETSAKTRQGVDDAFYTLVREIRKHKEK
KRAS G13C, sequence (P62937 whole entry): as the sequence (P62937 whole entry) above
How it was run: as §1

[7] = molecular target: KRAS G13D (Homo sapiens, UniProt P01116+P62937, G13D); test: Ras-Raf disruption / FRET / MOA assay (BRAF RBD); type: biochemical; details: KRAS G13D FRET data IC50, Ras-Raf disruption, with Cyclophilin A
KRAS G13D, sequence (P01116 1-169 isoform P01116-2 G13D limits assumed): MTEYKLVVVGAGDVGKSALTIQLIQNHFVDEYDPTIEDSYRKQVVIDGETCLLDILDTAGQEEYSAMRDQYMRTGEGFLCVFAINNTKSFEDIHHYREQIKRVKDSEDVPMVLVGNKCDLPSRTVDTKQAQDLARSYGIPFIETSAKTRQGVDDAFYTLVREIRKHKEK
KRAS G13D, sequence (P62937 whole entry): as the sequence (P62937 whole entry) above
How it was run: as §1

[8] = molecular target: KRAS Q61H (Homo sapiens, UniProt P01116+P62937, Q61H); test: Ras-Raf disruption / FRET / MOA assay (BRAF RBD); type: biochemical
KRAS Q61H, sequence (P01116 1-169 isoform P01116-2 Q61H limits assumed): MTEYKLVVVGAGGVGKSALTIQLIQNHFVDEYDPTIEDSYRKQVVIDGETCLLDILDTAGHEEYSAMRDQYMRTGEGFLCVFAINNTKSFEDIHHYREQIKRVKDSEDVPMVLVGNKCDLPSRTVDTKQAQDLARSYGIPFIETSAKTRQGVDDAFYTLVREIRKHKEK
KRAS Q61H, sequence (P62937 whole entry): as the sequence (P62937 whole entry) above
How it was run: as §1

[9] = molecular target: KRAS WT (Homo sapiens, UniProt P01116+P62937); test: Ras-Raf disruption / FRET / MOA assay (BRAF RBD); type: biochemical; details: KRAS WT FRET data IC50, Ras-Raf disruption, with Cyclophilin A
KRAS WT, sequence (P01116 1-169 isoform P01116-2 limits assumed): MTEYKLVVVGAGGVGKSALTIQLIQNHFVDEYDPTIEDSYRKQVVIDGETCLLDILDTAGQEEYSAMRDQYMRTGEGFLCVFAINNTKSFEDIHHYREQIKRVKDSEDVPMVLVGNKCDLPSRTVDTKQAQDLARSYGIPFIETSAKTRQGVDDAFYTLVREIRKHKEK
KRAS WT, sequence (P62937 whole entry): as the sequence (P62937 whole entry) above
How it was run: as §1

[10] = molecular target: NRAS G12C (Homo sapiens, UniProt P01111+P62937, G12C); test: Ras-Raf disruption / FRET / MOA assay (BRAF RBD); type: biochemical; details: NRAS G12C FRET data IC50, NRAS G12C
NRAS G12C, sequence (P01111 whole entry G12C): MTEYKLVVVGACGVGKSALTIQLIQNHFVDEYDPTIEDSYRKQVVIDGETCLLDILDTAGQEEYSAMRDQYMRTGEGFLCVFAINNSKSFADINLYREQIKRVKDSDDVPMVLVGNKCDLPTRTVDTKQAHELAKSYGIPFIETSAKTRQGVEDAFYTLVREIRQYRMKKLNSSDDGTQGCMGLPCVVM
NRAS G12C, sequence (P62937 whole entry): as the sequence (P62937 whole entry) above
How it was run: as §1

[11] = molecular target: NRAS Q61K (Homo sapiens, UniProt P01111+P62937, Q61K); test: Ras-Raf disruption / FRET / MOA assay (BRAF RBD); type: biochemical
NRAS Q61K, sequence (P01111 whole entry Q61K): as the sequence (P01111 whole entry G12C) above, with C12G, Q61K counted along it
NRAS Q61K, sequence (P62937 whole entry): as the sequence (P62937 whole entry) above
How it was run: as §1

[12] = molecular target: NRAS Q61R (Homo sapiens, UniProt P01111+P62937, Q61R); test: Ras-Raf disruption / FRET / MOA assay (BRAF RBD); type: biochemical
NRAS Q61R, sequence (P01111 whole entry Q61R): as the sequence (P01111 whole entry G12C) above, with C12G, Q61R counted along it
NRAS Q61R, sequence (P62937 whole entry): as the sequence (P62937 whole entry) above
How it was run: as §1

[13] = molecular target: NRAS WT (Homo sapiens, UniProt P01111+P62937); test: Ras-Raf disruption / FRET / MOA assay (BRAF RBD); type: biochemical
NRAS WT, sequence (P01111 whole entry): as the sequence (P01111 whole entry G12C) above, with C12G counted along it
NRAS WT, sequence (P62937 whole entry): as the sequence (P62937 whole entry) above
How it was run: as §1

[14] = molecular target: KRAS G12C (Homo sapiens, UniProt P01116+P62937, G12C); test: Ras-Raf disruption / FRET / MOA assay (BRAF RBD); type: biochemical; details: KRAS G12C FRET data IC50, Ras-Raf disruption, with Cyclophilin A
KRAS G12C, sequence (P01116 1-169 isoform P01116-2 G12C limits assumed): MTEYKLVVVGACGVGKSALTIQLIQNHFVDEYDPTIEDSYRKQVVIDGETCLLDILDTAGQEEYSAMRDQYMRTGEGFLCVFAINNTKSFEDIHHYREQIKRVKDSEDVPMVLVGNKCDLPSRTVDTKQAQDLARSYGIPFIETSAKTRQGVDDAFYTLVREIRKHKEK
KRAS G12C, sequence (P62937 whole entry): as the sequence (P62937 whole entry) above
How it was run: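 TR-FRET read-out after 1.5 h with anti-His Eu-W1024 (10 nM) and anti-GST APC (50 nM), following 3 h at 25 °C of compound (top 30 μM, 3-fold, 10 points) with 25 μM Cyclophilin A, 12.5 nM GMPPNP-loaded K-Ras G12C and 50 nM BRAF RBD; IC50 reported.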

[15] = read-out: AsPC-1 Cell Viability assay data IC50, K-Ras G12D, 5-day treatment

SMILES | EC50 ([1]; ASPC1, read-out: pERK EC50) [nM] | IC50 [2, 15] [nM] | IC50 [3] [nM] | IC50 [4] [nM] | IC50 [5] [nM] | IC50 [6] [nM] | IC50 [7] [nM] | IC50 [8] [nM] | IC50 [9] [nM] | IC50 [10] [nM] | IC50 [11] [nM] | IC50 [12] [nM] | IC50 [13] [nM] | IC50 [14] [nM] | EC50 ([1]; ASPC1, AsPC-1 KRAS G12D, read-out: pERK EC50) [nM] | IC50 ([2]; K-Ras G12D, 5-day treatment, read-out: AsPC-1 Cell Viability assay data IC50) [nM]
CCn1c(-c2cccnc2[C@H](C)OC)c2c3cc(ccc31)-c1cc(O)cc(c1)C[C@H](NC(=O)[C@H](C(C)C)N(C)C(=O)CN(C)C(=O)[C@H]1N[C@@H]1C1COC1)C(=O)N1CCC[C@H](N1)C(=O)OCC(C)(C)C2 [Example 284] | < 5000 | 1000 to 10000 | 10 to 100 | 10 to 100 | 10 to 100 | < 10 | 10 to 100 | 10 to 100 | 10 to 100 | < 10 | 100 to 1000 | 100 to 1000 | 10 to 100 | 10 to 100 | – | –
CCn1c(-c2cccnc2[C@H](C)OC)c2c3cc(ccc31)-c1cc(O)cc(c1)C[C@H](NC(=O)[C@H](C(C)C)N(C)C(=O)CN(C)C(=O)[C@@H]1N[C@@H]1C1COC1)C(=O)N1CCC[C@H](N1)C(=O)OCC(C)(C)C2 [Example 281] | < 5000 | 100 to 1000 | 10 to 100 | < 10 | 10 to 100 | 10 to 100 | 10 to 100 | < 10 | 10 to 100 | < 10 | 10 to 100 | 100 to 1000 | 10 to 100 | < 10 | – | –
CCn1c(-c2cccnc2[C@H](C)OC)c2c3cc(ccc31)-c1cc(O)cc(c1)C[C@H](NC(=O)[C@H](C(C)C)N(C)C(=O)CN(C)C(=O)[C@H]1CN1CCCN1CCCC1=O)C(=O)N1CCC[C@H](N1)C(=O)OCC(C)(C)C2 (stereo partly drawn) [Example 268, (2R)—N-(2-(((2S)-1-(((6^3S,4S)-1^1-ethyl-2^5-hydroxy-1^2-(2-((S)-1-methoxyethyl)pyridin-3-yl)-10,10-dimethyl-5,7-dioxo-6^1,6^2,6^3,6^4,6^5,6^6-hexahydro-1^1H-8-oxa-1(5,3)-indola-6(1,3)-pyridazina-2(1,3)-benzenacycloundecaphane-4-yl)amino)-3-methyl-1-oxobutan-2-yl)(methyl)amino)-2-oxoethyl)-N-methyl-1-(3-(2-oxopyrrolidin-1-yl)propyl)aziridine-2-carboxamide] | < 5000 | 1000 to 10000 | 100 to 1000 | 10 to 100 | 10 to 100 | 10 to 100 | 100 to 1000 | 10 to 100 | 10 to 100 | < 10 | 100 to 1000 | 100 to 1000 | 10 to 100 | < 10 | – | –
CCn1c(-c2cccnc2[C@H](C)OC)c2c3cc(ccc31)-c1cc(O)cc(c1)C[C@H](NC(=O)[C@H](C(C)C)N(C)C(=O)CN(C)C(=O)[C@H]1N[C@H]1C1COC1)C(=O)N1CCC[C@H](N1)C(=O)OCC(C)(C)C2 [Example 282] | < 5000 | 1000 to 10000 | 10 to 100 | 10 to 100 | 10 to 100 | < 10 | 10 to 100 | 10 to 100 | 10 to 100 | 10 to 100 | 100 to 1000 | 100 to 1000 | 10 to 100 | 10 to 100 | – | –
CCn1c(-c2cccnc2[C@H](C)OC)c2c3cc(ccc31)-c1cc(O)cc(c1)C[C@H](NC(=O)[C@H](C(C)C)N(C)C(=O)CN(C)C(=O)[C@@H]1CN1CC1COC1)C(=O)N1CCC[C@H](N1)C(=O)OCC(C)(C)C2 (stereo partly shown) [Example 278] | < 5000 | 1000 to 10000 | 10 to 100 | 10 to 100 | 10 to 100 | 10 to 100 | 100 to 1000 | 10 to 100 | 10 to 100 | < 10 | 100 to 1000 | 100 to 1000 | 10 to 100 | 10 to 100 | – | –
CCn1c(-c2cccnc2[C@H](C)OC)c2c3cc(ccc31)-c1cc(O)cc(c1)C[C@H](NC(=O)[C@H](C(C)C)N(C)C(=O)CN(C)C(=O)[C@@H]1CN1CC(=O)N(C)C)C(=O)N1CCC[C@H](N1)C(=O)OCC(C)(C)C2 (stereo partly shown) [Example 271] | < 5000 | > 10000 | 100 to 1000 | 10 to 100 | 100 to 1000 | 10 to 100 | 100 to 1000 | 10 to 100 | 10 to 100 | < 10 | 100 to 1000 | 100 to 1000 | 100 to 1000 | < 10 | – | –
CCn1c(-c2cccnc2[C@H](C)OC)c2c3cc(ccc31)-c1cc(O)cc(c1)C[C@H](NC(=O)[C@H](C(C)C)N(C)C(=O)CN(C)C(=O)[C@H]1CN1CCCN1CCOC1=O)C(=O)N1CCC[C@H](N1)C(=O)OCC(C)(C)C2 (stereo partly shown) [Example 272] | < 5000 | 1000 to 10000 | 100 to 1000 | 10 to 100 | 10 to 100 | 10 to 100 | 100 to 1000 | 10 to 100 | 10 to 100 | < 10 | 100 to 1000 | 100 to 1000 | 10 to 100 | < 10 | – | –
CCn1c(-c2cccnc2[C@H](C)OC)c2c3cc(ccc31)-c1cc(O)cc(c1)C[C@H](NC(=O)[C@H](C(C)C)N(C)C(=O)[C@]13C[C@H]1CCN3C(=O)[C@@H]1CN1)C(=O)N1CCC[C@H](N1)C(=O)OCC(C)(C)C2 [Example 166] | – | – | 100 to 1000 | 100 to 1000 | 100 to 1000 | 100 to 1000 | 100 to 1000 | 10 to 100 | 100 to 1000 | 100 to 1000 | 1000 to 10000 | 1000 to 10000 | 100 to 1000 | 100 to 1000 | < 5000 | 1000 to 10000
CCn1c(-c2cccnc2[C@H](C)OC)c2c3cc(ccc31)-c1cc(O)cc(c1)C[C@H](NC(=O)[C@H](C(C)C)N(C)C(=O)CN(C)C(=O)[C@H]1CN1C1COC1)C(=O)N1CCC[C@H](N1)C(=O)OCC(C)(C)C2 (stereo partly shown) [Example 275] | < 5000 | 1000 to 10000 | 100 to 1000 | 10 to 100 | 100 to 1000 | 10 to 100 | 100 to 1000 | 10 to 100 | 100 to 1000 | 10 to 100 | 100 to 1000 | 100 to 1000 | 100 to 1000 | 10 to 100 | – | –
CCn1c(-c2cccnc2[C@H](C)OC)c2c3cc(ccc31)-c1cc(O)cc(c1)C[C@H](NC(=O)[C@H](C(C)C)N(C)C(=O)[C@H]1CC[C@@H](C)N1C(=O)[C@H]1CN1)C(=O)N1CCC[C@H](N1)C(=O)OCC(C)(C)C2 [Example 154] | < 5000 | 1000 to 10000 | 1000 to 10000 | 100 to 1000 | 100 to 1000 | 100 to 1000 | 1000 to 10000 | – | 100 to 1000 | 10 to 100 | – | – | – | 10 to 100 | – | –
